Assay results reported in patent US20230073777A1, “CYCLIC-AMP RESPONSE ELEMENT BINDING PROTEIN (CBP) AND/OR ADENOVIRAL E1A BINDING PROTEIN OF 300 KDA (P300) DEGRADATION COMPOUNDS AND METHODS OF USE” (CULLGEN (SHANGHAI), INC., priority 2019, published 2023).
Like-named read-outs stand apart in the source and are kept apart here.

Legend:
[1] = tested on: LNCaP cells; assay: LNCaP cell viability assay (CellTiter-Glo); type: cell-based; settings: Homo sapiens, 72 h, LNCaP prostate cancer cell viability inhibition, 3 days
Summary of the method: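 LNCaP cells, 5000/well, exposed to compounds in 12-point 3-fold serial dilution (top 10 μM) for 3 days. Viability by CellTiter-Glo luminescence, normalized to untreated cells; IC50 by least-squares nonlinear regression.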

[2] = target: P300 (Homo sapiens, UniProt Q09472); assay: Immunoblotting of P300 protein levels in LNCaP or 22RV1 cells; type: cell-based; set-up: LNCaP or 22RV1 cells that express CBP/P300 proteins were treated with GNE-781 or the bivalent compounds; endogenous in cells; host or cells: LNCaP (clone FGC) or 22RV1 cells; settings: read-out: Degradation (10 nM)
Summary of the method: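 LNCaP or 22RV1 cells treated with compounds for indicated hours, DMSO as negative control. RIPA lysates resolved by SDS-PAGE and immunoblotted for P300 or CBP, tubulin or vinculin as loading control; chemiluminescent bands quantitated.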

[3] = percentage of inhibition of p300 at 10 nM (Table 3)
[4] = percentage of inhibition of p300 at 10 nM (Table 2)

Sequence of P300 (Q09472 whole entry): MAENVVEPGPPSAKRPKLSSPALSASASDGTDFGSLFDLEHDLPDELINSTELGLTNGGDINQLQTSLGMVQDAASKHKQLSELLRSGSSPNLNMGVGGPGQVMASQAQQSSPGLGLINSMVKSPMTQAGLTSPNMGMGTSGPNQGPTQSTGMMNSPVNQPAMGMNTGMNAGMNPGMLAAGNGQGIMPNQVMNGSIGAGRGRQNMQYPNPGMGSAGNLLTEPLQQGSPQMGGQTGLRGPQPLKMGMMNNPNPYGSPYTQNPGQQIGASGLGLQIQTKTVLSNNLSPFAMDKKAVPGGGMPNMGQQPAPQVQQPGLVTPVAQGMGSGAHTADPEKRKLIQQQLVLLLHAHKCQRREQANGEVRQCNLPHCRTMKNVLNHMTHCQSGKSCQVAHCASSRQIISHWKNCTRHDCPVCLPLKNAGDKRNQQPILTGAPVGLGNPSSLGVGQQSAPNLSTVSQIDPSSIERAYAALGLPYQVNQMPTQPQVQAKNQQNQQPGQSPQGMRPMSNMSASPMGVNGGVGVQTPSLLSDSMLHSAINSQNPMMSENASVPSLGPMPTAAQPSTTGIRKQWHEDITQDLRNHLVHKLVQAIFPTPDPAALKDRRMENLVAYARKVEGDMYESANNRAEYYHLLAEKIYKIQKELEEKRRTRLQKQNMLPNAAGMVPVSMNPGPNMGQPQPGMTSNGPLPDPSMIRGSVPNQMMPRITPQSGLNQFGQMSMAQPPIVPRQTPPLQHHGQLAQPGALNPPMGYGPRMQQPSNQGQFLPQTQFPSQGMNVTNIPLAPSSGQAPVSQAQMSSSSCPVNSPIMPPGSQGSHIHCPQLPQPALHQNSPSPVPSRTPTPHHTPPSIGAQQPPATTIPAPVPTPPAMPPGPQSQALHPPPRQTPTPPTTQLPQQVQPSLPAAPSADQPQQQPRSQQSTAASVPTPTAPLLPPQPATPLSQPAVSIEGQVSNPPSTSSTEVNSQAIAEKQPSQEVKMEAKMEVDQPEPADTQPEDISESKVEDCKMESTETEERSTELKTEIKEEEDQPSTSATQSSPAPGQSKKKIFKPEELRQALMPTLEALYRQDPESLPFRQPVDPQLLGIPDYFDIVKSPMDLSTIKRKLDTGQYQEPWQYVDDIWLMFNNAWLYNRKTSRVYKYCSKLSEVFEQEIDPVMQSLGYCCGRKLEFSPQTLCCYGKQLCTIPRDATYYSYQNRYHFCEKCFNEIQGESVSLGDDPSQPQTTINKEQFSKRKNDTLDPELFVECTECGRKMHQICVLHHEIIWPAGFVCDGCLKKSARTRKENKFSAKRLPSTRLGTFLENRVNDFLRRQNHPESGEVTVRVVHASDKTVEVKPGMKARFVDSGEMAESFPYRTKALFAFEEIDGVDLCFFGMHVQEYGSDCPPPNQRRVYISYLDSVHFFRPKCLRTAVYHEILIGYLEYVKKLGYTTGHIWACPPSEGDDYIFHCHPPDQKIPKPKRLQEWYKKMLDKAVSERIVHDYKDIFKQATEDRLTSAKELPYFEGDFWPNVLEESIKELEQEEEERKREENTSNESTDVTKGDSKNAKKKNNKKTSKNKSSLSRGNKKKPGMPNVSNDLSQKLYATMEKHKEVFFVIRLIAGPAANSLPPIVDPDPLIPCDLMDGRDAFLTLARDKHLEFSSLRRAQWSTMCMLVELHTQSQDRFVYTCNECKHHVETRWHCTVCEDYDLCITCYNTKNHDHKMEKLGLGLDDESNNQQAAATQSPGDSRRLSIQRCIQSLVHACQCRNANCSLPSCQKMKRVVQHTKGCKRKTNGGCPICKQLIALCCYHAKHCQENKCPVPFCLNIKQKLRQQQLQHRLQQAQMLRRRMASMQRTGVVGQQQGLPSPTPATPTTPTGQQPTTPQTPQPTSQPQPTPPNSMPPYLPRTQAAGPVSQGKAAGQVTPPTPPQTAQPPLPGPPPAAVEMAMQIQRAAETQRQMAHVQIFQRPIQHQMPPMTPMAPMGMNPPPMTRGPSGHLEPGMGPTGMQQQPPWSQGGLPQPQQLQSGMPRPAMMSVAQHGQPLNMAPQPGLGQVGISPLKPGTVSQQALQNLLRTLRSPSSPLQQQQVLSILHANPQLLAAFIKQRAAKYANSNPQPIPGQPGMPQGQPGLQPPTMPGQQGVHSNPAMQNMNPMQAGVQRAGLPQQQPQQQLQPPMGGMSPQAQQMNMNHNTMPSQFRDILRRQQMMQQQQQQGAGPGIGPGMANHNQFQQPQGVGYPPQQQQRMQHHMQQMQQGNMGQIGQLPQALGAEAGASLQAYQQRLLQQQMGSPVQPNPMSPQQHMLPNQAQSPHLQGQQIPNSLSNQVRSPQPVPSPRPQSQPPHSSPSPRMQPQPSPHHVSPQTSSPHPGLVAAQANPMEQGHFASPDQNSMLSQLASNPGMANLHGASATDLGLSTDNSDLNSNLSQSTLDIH

| IC50 ([1]; CellTiter-Glo (Table 3)) [nM] | inhibition at 0.01 µM [2, 3] [%] | IC50 ([1]; CellTiter-Glo (Table 2)) [nM] | inhibition at 0.01 µM [2, 4] [%] | SMILES | inhibition at 0.01 µM [2] [%] |
| --- | --- | --- | --- | --- | --- |
| 0.3 | > 80 | – | – | CC(=O)N1CCc2c(c(N3CCCc4cc(-c5cnn(C)c5)c(C(F)F)cc43)nn2C2CCN(C(=O)CCCCCCCCNc3ccc4c(c3)n(C)c(=O)n4C3CCC(=O)NC3=O)CC2)C1 (stereo not shown) [P-162, 3-(5-((9-(4-(5-acetyl-3-(7-(difluoromethyl)-6-(1-methyl-1H-pyrazol-4-yl)-3,4-dihydroquinolin-1(2H)-yl)-4,5,6,7-tetrahydro-1H-pyrazolo[4,3-c]pyridin-1-yl)piperidin-1-yl)-9-oxononyl)amino)-3-methyl-2-oxo-2,3-dihydro-1H-benzo[d]imidazol-1-yl)piperidine-2,6-dione] | – |
| 44.5 | 50 to 80 | – | – | CNC(=O)N1CCc2c(c(N3CCCc4cc(-c5cnn(C)c5)c(C(F)F)cc43)nn2C2CCN(C(=O)CCCCCn3c(=O)n(C4CCC(=O)NC4=O)c4ccccc43)CC2)C1 (stereo not shown) [P-105, 3-(7-(Difluoromethyl)-6-(1-methyl-1H-pyrazol-4-yl)-3,4-dihydroquinolin-1(2H)-yl)-1-(1-(6-(3-(2,6-dioxopiperidin-3-yl)-2-oxo-2,3-dihydro-1H-benzo[d]imidazol-1-yl)hexanoyl)piperidin-4-yl)-N-methyl-1,4,6,7-tetrahydro-5H-pyrazolo[4,3-c]pyridine-5-carboxamide] | – |
| 17.8 | 20 to 50 | – | – | CC(=O)N1CCc2c(c(N3CCCc4cc(-c5cnn(C)c5)c(C(F)F)cc43)nn2C2CCN(C(=O)CCCCCCc3cccc4c3C(=O)N(C3CCC(=O)NC3=O)C4=O)CC2)C1 (stereo not shown) [P-118, 4-(7-(4-(5-Acetyl-3-(7-(difluoromethyl)-6-(1-methyl-1H-pyrazol-4-yl)-3,4-dihydroquinolin-1(2H)-yl)-4,5,6,7-tetrahydro-1H-pyrazolo[4,3-c]pyridin-1-yl)piperidin-1-yl)-7-oxoheptyl)-2-(2,6-dioxopiperidin-3-yl)isoindoline-1,3-dione] | – |
| 16.5 | 50 to 80 | – | – | CC(=O)N1CCc2c(c(N3CCCc4cc(-c5cnn(C)c5)c(C(F)F)cc43)nn2C2CCN(C(=O)CCCCCCn3c(=O)n(C4CCC(=O)NC4=O)c4ccccc43)CC2)C1 (stereo not shown) [P-108, 3-(3-(7-(4-(5-Acetyl-3-(7-(difluoromethyl)-6-(1-methyl-1H-pyrazol-4-yl)-3,4-dihydroquinolin-1(2H)-yl)-4,5,6,7-tetrahydro-1H-pyrazolo[4,3-c]pyridin-1-yl)piperidin-1-yl)-7-oxoheptyl)-2-oxo-2,3-dihydro-1H-benzo[d]imidazol-1-yl)piperidine-2,6-dione] | – |
| > 10000 | < 20 | – | – | CC(=O)N1CCc2c(c(N3CCCc4cc(-c5cnn(C)c5)c(C(F)F)cc43)nn2C2CCN(CCCNC(=O)CNc3cccc4c3C(=O)N(C3CCC(=O)NC3=O)C4=O)CC2)C1 (stereo not shown) [P-124, N-(3-(4-(5-Acetyl-3-(7-(difluoromethyl)-6-(1-methyl-1H-pyrazol-4-yl)-3,4-dihydroquinolin-1(2H)-yl)-4,5,6,7-tetrahydro-1H-pyrazolo[4,3-c]pyridin-1-yl)piperidin-1-yl)propyl)-2-((2-(2,6-dioxopiperidin-3-yl)-1,3-dioxoisoindolin-4-yl)amino)acetamide] | – |
| 1.4 | > 80 | – | – | CC(=O)N1CCc2c(c(N3CCCc4cc(-c5cnn(C)c5)c(C(F)F)cc43)nn2C2CCN(C(=O)CN3CCC(CCCc4cccc5c4C(=O)N(C4CCC(=O)NC4=O)C5=O)CC3)CC2)C1 (stereo not shown) [P-147, 4-(3-(1-(2-(4-(5-acetyl-3-(7-(difluoromethyl)-6-(1-methyl-1H-pyrazol-4-yl)-3,4-dihydroquinolin-1(2H)-yl)-4,5,6,7-tetrahydro-1H-pyrazolo[4,3-c]pyridin-1-yl)piperidin-1-yl)-2-oxoethyl)piperidin-4-yl)propyl)-2-(2,6-dioxopiperidin-3-yl)isoindoline-1,3-dione] | – |
| 84.4 | > 80 | – | – | CC(=O)N1CCc2c(c(N3CCCc4cc(-c5cnn(C)c5)c(C(F)F)cc43)nn2C2CCN(C(=O)CCCCC#Cc3cccc4c3CN(C3CCC(=O)NC3=O)C4=O)CC2)C1 (stereo not shown) [P-122, 3-(4-(7-(4-(5-Acetyl-3-(7-(difluoromethyl)-6-(1-methyl-1H-pyrazol-4-yl)-3,4-dihydroquinolin-1(2H)-yl)-4,5,6,7-tetrahydro-1H-pyrazolo[4,3-c]pyridin-1-yl)piperidin-1-yl)-7-oxohept-1-yn-1-yl)-1-oxoisoindolin-2-yl)piperidine-2,6-dione] | – |
| 7.5 | > 80 | – | – | CC(=O)N1CCc2c(c(N3CCCc4cc(-c5cnn(C)c5)c(C(F)F)cc43)nn2C2CCN(C(=O)CCCCCNc3cccc4nnn(C5CCC(=O)NC5=O)c(=O)c34)CC2)C1 (stereo not shown) [P-151, 3-(5-((6-(4-(5-acetyl-3-(7-(difluoromethyl)-6-(1-methyl-1H-pyrazol-4-yl)-3,4-dihydroquinolin-1(2H)-yl)-4,5,6,7-tetrahydro-1H-pyrazolo[4,3-c]pyridin-1-yl)piperidin-1-yl)-6-oxohexyl)amino)-4-oxobenzo[d][1,2,3]triazin-3(4H)-yl)piperidine-2,6-dione] | – |

More lines, now with the values behind:

| SMILES | IC50 ([1]; CellTiter-Glo (Table 3)) [nM] | inhibition at 0.01 µM [2, 3] [%] | IC50 ([1]; CellTiter-Glo (Table 2)) [nM] | inhibition at 0.01 µM [2, 4] [%] | inhibition at 0.01 µM [2] [%] |
| --- | --- | --- | --- | --- | --- |
| CNC(=O)N1CCc2c(c(N3CCCc4cc(-c5cnn(CC(=O)NCCOCCOCCOCCOCCC(=O)N[C@H](C(=O)N6C[C@H](O)C[C@H]6C(=O)NCc6ccc(-c7scnc7C)cc6)C(C)(C)C)c5)c(C(F)F)cc43)nn2C2CCOCC2)C1 [P-078, 3-(7-(Difluoromethyl)-6-(1-((S)-20-((2S,4R)-4-hydroxy-2-((4-(4-methylthiazol-5-yl)benzyl)carbamoyl)pyrrolidine-1-carbonyl)-21,21-dimethyl-2,18-dioxo-6,9,12,15-tetraoxa-3,19-diazadocosyl)-1H-pyrazol-4-yl)-3,4-dihydroquinolin-1(2H)-yl)-N-methyl-1-(tetrahydro-2H-pyran-4-yl)-1,4,6,7-tetrahydro-5H-pyrazolo[4,3-c]pyridine-5-carboxamide] | > 10000 | < 20 | – | – | – |
| CNC(=O)N1CCc2c(c(N3CCCc4cc(-c5cnn(CC(=O)NCCOCCOCCOCCNc6ccc7c(c6)C(=O)N(C6CCC(=O)NC6=O)C7=O)c5)c(C(F)F)cc43)nn2C2CCOCC2)C1 (stereo not shown) [P-030, 3-(7-(Difluoromethyl)-6-(1-(14-((2-(2,6-dioxopiperidin-3-yl)-1,3-dioxoisoindolin-5-yl)amino)-2-oxo-6,9,12-trioxa-3-azatetradecyl)-1H-pyrazol-4-yl)-3,4-dihydroquinolin-1(2H)-yl)-N-methyl-1-(tetrahydro-2H-pyran-4-yl)-1,4,6,7-tetrahydro-5H-pyrazolo[4,3-c]pyridine-5-carboxamide] | – | – | 669 | < 20 | – |
| CNC(=O)N1CCc2c(c(N3CCCc4cc(-c5cnn(C)c5)c(C(F)F)cc43)nn2C2CCN(C(=O)CCOCCOCCOCCOCCOCCNc3ccc4c(c3)C(=O)N(C3CCC(=O)NC3=O)C4=O)CC2)C1 (stereo not shown) [P-012, 3-(7-(Difluoromethyl)-6-(1-methyl-1H-pyrazol-4-yl)-3,4-dihydroquinolin-1(2H)-yl)-1-(1-(1-((2-(2,6-dioxopiperidin-3-yl)-1,3-dioxoisoindolin-5-yl)amino)-3,6,9,12,15-pentaoxaoctadecan-18-oyl)piperidin-4-yl)-N-methyl-1,4,6,7-tetrahydro-5H-pyrazolo[4,3-c]pyridine-5-carboxamide] | – | – | 197 | < 20 | – |
| CNC(=O)N1CCc2c(c(N3CCCc4cc(-c5cnn(C)c5)c(C(F)F)cc43)nn2C2CCN(C(=O)CCCCCCn3c(=O)n(C4CCC(=O)NC4=O)c4ccccc43)CC2)C1 (stereo not shown) [P-106, 3-(7-(difluoromethyl)-6-(1-methyl-1H-pyrazol-4-yl)-3,4-dihydroquinolin-1(2H)-yl)-1-(1-(7-(3-(2,6-dioxopiperidin-3-yl)-2-oxo-2,3-dihydro-1H-benzo[d]imidazol-1-yl)heptanoyl)piperidin-4-yl)-N-methyl-1,4,6,7-tetrahydro-5H-pyrazolo[4,3-c]pyridine-5-carboxamide] | 24.2 | – | – | – | 50 to 80 |
| CC(=O)N1CCc2c(c(N3CCCc4cc(-c5cnn(C)c5)c(C(F)F)cc43)nn2C2CCN(C(=O)CCCCCCCCn3c(=O)n(C4CCC(=O)NC4=O)c4ccccc43)CC2)C1 (stereo not shown) [P-163, 3-(3-(9-(4-(5-acetyl-3-(7-(difluoromethyl)-6-(1-methyl-1H-pyrazol-4-yl)-3,4-dihydroquinolin-1(2H)-yl)-4,5,6,7-tetrahydro-1H-pyrazolo[4,3-c]pyridin-1-yl)piperidin-1-yl)-9-oxononyl)-2-oxo-2,3-dihydro-1H-benzo[d]imidazol-1-yl)piperidine-2,6-dione] | 0.9 | – | – | – | > 80 |
| CNC(=O)N1CCc2c(c(N3CCCc4cc(-c5cnn(CC(=O)NCCOCCOCCC(=O)N[C@H](C(=O)N6C[C@H](O)C[C@H]6C(=O)NCc6ccc(-c7scnc7C)cc6)C(C)(C)C)c5)c(C(F)F)cc43)nn2C2CCOCC2)C1 [P-075, 3-(7-(Difluoromethyl)-6-(1-((S)-14-((2S,4R)-4-hydroxy-2-((4-(4-methylthiazol-5-yl)benzyl)carbamoyl)pyrrolidine-1-carbonyl)-15,15-dimethyl-2,12-dioxo-6,9-dioxa-3,13-diazahexadecyl)-1H-pyrazol-4-yl)-3,4-dihydroquinolin-1(2H)-yl)-N-methyl-1-(tetrahydro-2H-pyran-4-yl)-1,4,6,7-tetrahydro-5H-pyrazolo[4,3-c]pyridine-5-carboxamide] | > 10000 | < 20 | – | – | – |
